This note sets out measurements from ChEMBL document CHEMBL3856221, “Structural modifications of the serotonin 5-HT7 receptor agonist N-(4-cyanophenylmethyl)-4-(2-biphenyl)-1-piperazinehexanamide (LP-211) to improve in vitro microsomal stability: A case study” (Eur J Med Chem, 2016).

Each structure is given as a SMILES string. Calls of active or inactive are those of the source. The rule behind the calls is not given here.

A short description of series [1]: Half life in ip dosed mouse. The settings on record: in vivo.
A short description of series [2]: Cmax in CD-1 mouse brain at 10 mg/kg, ip administered as single dose after 30 mins by LC/MS analysis. Type of series: ADME, organism-based. Further details: dose 10 mg/kg, route intraperitoneal.
A short description of series [3]: Elimination half life in CD-1 mouse plasma at 10 mg/kg, ip administered as single dose by LC/MS analysis. Type of series: ADME, organism-based. The settings on record: read-out: beta t1/2 (converted).
Series [4] has as its target 5-hydroxytryptamine receptor 7 (Homo sapiens, UniProt P34969). The experiment in a line: Displacement of [3H]-5-CT from human 5-HT7b receptor expressed in HEK293 cell membranes after 1 hr by microbeta counting analysis.
In series [5] the target is T1, 5-hydroxytryptamine receptor 1A (Homo sapiens, UniProt P08908).
T1 sequence (P08908 whole entry): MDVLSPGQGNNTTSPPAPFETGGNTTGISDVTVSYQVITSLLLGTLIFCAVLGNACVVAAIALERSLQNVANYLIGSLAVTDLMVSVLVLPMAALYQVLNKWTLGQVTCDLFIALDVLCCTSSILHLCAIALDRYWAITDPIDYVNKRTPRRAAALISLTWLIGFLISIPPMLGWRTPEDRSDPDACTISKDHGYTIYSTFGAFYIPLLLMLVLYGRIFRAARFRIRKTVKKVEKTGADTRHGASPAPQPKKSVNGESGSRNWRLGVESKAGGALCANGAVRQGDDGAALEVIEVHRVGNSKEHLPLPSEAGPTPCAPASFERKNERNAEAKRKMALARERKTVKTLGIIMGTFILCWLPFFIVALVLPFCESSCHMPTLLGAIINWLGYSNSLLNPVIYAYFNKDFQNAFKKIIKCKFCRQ
The series is described as follows: Displacement of [3H]-8-OH-DPAT from human 5-HT1A receptor expressed in HEK293 cell membranes after 1 hr by microbeta counting analysis. In general terms: Loss of bound radioactivity is the signal in a displacement assay; it reports binding, not function.

The target in series [6] is T2, 5-hydroxytryptamine receptor 6 (Homo sapiens, UniProt P50406). The series is described as follows: Displacement of [3H]-LSD from human 5-HT6 receptor expressed in HEK293 cell membranes after 1 hr by microbeta counting analysis.
The target of series [7] is T3, D(2) dopamine receptor (Homo sapiens, UniProt P14416). The experiment in a line: Displacement of [3H]raclopride from human dopamine D2L receptor expressed in HEK293 cell membranes after 1 hr by microbeta counting analysis. Type of series: cell-based.
The nature of series [8]: Displacement of [3H]-prazosin from adrenergic alpha 1 receptor in pig brain cortical membranes after 50 mins by microbeta counting analysis. It counts as ADME, cell membranes, Sus scrofa.
Series [9] can be described thus: Stability in mouse liver microsomes assessed as oxidative metabolism by measuring drug recovery at 10 uM preincubated for 10 mins followed by NADPH addition measured after 30 mins by liquid chromatographic method. The settings on record: for remaining at 0.5 h, 10 µM: liver microsomes, read-out: Drug recovery. It counts as ADME. Background: Liver microsomes are vesicles of endoplasmic reticulum, rich in cytochrome P450 enzymes.

Series [10] in a line: Half life in mouse liver microsomes in presence of NADPH by liquid chromatographic method. It counts as ADME. The settings on record: for half-life: liver microsomes.
Series [11] concerns the target 5-hydroxytryptamine receptor 7 (Mus musculus) (UniProt P32304). The series is described as follows: Agonist activity at 5-HT7 receptor in embryonic day 15 C57BL/6 mouse striatum assessed as increase in neurite length at 20 nM after 30 mins by DAPI staining based microscopy relative to control.
The target is the same in series [12]. The experiment in a line: Agonist activity at 5-HT7 receptor in embryonic day 15 C57BL/6 mouse striatum assessed as increase in neurite length at 20 nM up to 4 hrs by DAPI staining based microscopy relative to control.
For series [13] the target is unchanged. The series is described as follows: Agonist activity at 5-HT7 receptor in embryonic day 15 C57BL/6 mouse cortex assessed as increase in neurite length at 20 nM after 30 mins by DAPI staining based microscopy relative to control. Type of series: tissue-based.
The target is the same in series [14]. The experiment in a line: Agonist activity at 5-HT7 receptor in embryonic day 15 C57BL/6 mouse cortex assessed as increase in neurite length at 20 nM up to 24 hrs by DAPI staining based microscopy. It counts as tissue-based.
The nature of series [15]: Cmax in CD-1 mouse plasma at 10 mg/kg, ip administered as single dose after 30 mins by LC/MS analysis. Type of series: ADME, organism-based. Further details: dose 10 mg/kg, route intraperitoneal.
Series [16] in a line: Drug uptake in CD-1 mouse plasma at 10 mg/kg, ip administered as single dose measured up to 4 hrs by LC/MS analysis. The settings on record: in vivo. Type of series: ADME, organism-based.
Series [17] is described as follows: Elimination half life in CD-1 mouse brain at 10 mg/kg, ip administered as single dose by LC/MS analysis. Type of series: ADME, organism-based. The settings on record: read-out: beta t1/2 (converted).
Series [18] is described as follows: Ratio of drug uptake in CD-1 mouse brain to plasma at 10 mg/kg, ip administered as single dose by LC/MS analysis. Type of series: ADME, organism-based. The settings on record: read-out: BPR.
Series [19] is described as follows: Retention factor, logKw of compound in MeOH/0.01 M phosphate buffer at pH 7.4 by RP-HPLC method. Type of series: physicochemical.
In series [20] the target is T2, 5-hydroxytryptamine receptor 6. The experiment in a line: Displacement of [3H]-LSD from human 5-HT6 receptor after […] by cell based assay.
The target in series [21] is T3, D(2) dopamine receptor. The experiment in a line: Binding affinity to dopamine D2 receptor (unknown origin).

Chain of 5-hydroxytryptamine receptor 7 (P34969 whole entry): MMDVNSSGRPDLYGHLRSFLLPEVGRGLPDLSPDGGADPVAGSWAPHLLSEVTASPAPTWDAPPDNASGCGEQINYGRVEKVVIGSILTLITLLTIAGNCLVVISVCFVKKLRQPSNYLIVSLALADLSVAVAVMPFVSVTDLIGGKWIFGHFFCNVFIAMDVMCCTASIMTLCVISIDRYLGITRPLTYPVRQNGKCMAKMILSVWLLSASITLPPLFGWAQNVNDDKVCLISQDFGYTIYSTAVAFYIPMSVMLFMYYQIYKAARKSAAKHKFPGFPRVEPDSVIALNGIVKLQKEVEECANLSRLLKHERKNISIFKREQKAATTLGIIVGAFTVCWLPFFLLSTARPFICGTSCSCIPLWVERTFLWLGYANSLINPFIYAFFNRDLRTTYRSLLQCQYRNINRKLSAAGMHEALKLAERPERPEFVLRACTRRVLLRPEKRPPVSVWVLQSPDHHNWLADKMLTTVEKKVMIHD
T3 sequence (P14416 whole entry): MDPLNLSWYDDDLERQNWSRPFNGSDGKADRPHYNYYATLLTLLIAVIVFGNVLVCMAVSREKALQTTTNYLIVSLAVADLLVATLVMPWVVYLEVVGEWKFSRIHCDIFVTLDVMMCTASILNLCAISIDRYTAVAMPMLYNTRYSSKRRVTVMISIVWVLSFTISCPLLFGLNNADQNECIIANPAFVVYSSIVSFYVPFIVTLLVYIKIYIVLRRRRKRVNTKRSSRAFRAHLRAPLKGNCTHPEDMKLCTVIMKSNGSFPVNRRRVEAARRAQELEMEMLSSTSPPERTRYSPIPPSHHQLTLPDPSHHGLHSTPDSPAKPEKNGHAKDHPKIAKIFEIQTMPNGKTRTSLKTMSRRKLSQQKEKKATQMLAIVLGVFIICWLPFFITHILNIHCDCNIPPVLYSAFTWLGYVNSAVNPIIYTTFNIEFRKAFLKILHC
T2 sequence (P50406 whole entry): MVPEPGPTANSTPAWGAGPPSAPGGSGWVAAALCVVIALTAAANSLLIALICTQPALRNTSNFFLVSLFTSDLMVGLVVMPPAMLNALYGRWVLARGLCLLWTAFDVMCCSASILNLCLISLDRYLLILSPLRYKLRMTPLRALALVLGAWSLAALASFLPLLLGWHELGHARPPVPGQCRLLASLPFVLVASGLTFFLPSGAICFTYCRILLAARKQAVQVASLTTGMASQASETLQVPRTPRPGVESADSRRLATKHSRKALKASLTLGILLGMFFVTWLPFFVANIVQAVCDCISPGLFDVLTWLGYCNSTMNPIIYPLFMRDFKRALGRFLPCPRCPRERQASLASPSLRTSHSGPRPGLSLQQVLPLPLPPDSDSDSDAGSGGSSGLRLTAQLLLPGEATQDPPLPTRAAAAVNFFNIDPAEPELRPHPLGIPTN
Chain of 5-hydroxytryptamine receptor 7 (Mus musculus) (P32304 whole entry): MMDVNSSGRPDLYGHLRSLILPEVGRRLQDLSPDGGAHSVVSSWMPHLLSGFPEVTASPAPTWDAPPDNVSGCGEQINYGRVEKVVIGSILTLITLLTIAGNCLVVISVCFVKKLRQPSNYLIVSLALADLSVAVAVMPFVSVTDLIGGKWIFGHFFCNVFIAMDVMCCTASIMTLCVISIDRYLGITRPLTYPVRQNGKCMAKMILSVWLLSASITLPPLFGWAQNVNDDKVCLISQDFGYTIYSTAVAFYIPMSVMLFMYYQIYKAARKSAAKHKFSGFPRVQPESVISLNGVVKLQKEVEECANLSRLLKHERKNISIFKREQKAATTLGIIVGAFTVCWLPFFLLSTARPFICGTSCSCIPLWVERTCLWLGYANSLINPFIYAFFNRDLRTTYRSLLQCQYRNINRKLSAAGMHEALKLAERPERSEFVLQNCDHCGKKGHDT

In turn, `O=C1CCc2ccc(OCCCCN3CCN(c4cccc(Cl)c4Cl)CC3)cc2N1` [ARIPIPRAZOLE] gave a half-life in series [1] of 264 min.
What is called Cmax is the maximum level reached in the sampled fluid or tissue. In general, Ki refers to the dissociation constant of the complex between target and ligand, obtained from inhibition or displacement. Higher therefore signals lower affinity. Consider `COc1ccc(-c2cc(F)ccc2N2CCN(CCCCCC(=O)NCc3ccc(C#N)cc3)CC2)cc1`, for which the values for the Cmax in series [2] and in series [15] were 515 ng/mL and 1170 ng/mL, respectively. Further, the figures for the half-life in [3] and in series [17] were 64.2 min and 61.2 min, respectively. For the same molecule, the Ki was found to be 25.5 nM in [4]; 771 nM in [5]; 614 nM in [6]; 522 nM in series [7]; 6.6 nM in [8]. Besides, the Drug recovery in [9] (microsomes, 0.5 h, 10 µM) was determined as 27%. Besides, in [10] (microsomes), the t1/2 was found to be 45 min. The Activity in series [11] turned out to be 124%; in [12] it was 126%; in [13], 130%. The result in series [14] was Active. Moreover, the Drug uptake result in series [16] is given as “Active”. In [18], the Kp is 0.5. In addition, the logKw in [19] stood at 0.52.
As to `COc1ccc(-c2ccccc2N2CCN(CCCCCC(=O)N[C@@H](C)c3ccc(C#N)cc3)CC2)cc1`, the inhibitory constant (Ki) in series [4] is 19 nM; in series [5], 147 nM; in series [6], 700 nM; in series [7] it was 308 nM; in [8], 12.9 nM. Moreover, the remaining at 0.5 h, 10 µM in series [9] turned out to be 24%. The half-life in series [10] is 29 min. The molecule also had a logKw in series [19] of 0.59.
For `COc1ccc(-c2ccccc2N2CCN(CCCCCC(=O)NCc3ccc(C#N)cc3)CC2)cc1`, the Ki in series [4] was 8 nM; in series [5], 126 nM; in series [6] it was 745 nM; in series [7] it was 293 nM; in series [8], 30 nM. Further, the remaining at 0.5 h, 10 µM in series [9] turned out to be 25%. In addition, in [10], the half-life was found to be 18 min. In addition, in [19], the logKw was 0.54.
With `COc1ccc(-c2ccccc2N2CCN(CCCCCC(=O)N[C@H](C)c3ccc(C#N)cc3)CC2)cc1`, the Ki in series [4] amounted to 12 nM; in [5], 109 nM; in series [6], 843 nM; in series [7] it was 243 nM; in series [8] it was 17.8 nM. Besides, the remaining at 0.5 h, 10 µM in series [9] worked out at 26%. Further, the half-life in [10] was found to be 23 min. The logKw in [19] was found to be 0.54.
Turning to `N#Cc1ccc(CNC(=O)CCCCCN2CCN(c3ccc(F)cc3-c3ccc(C#N)cc3)CC2)cc1`, the Ki amounted to 27 nM in series [4]; 2870 nM in [5]; 927 nM in series [6]; 1380 nM in series [7]; 3.2 nM in series [8]. Besides, the remaining at 0.5 h, 10 µM in series [9] came to 22%. In series [10], the half-life was found to be 26 min. This molecule registered a logKw in series [19] of 0.23.
Take `COc1ccc(-c2ccccc2N2CCN(CCCCCC(=O)NCc3ccc(OCCO)cc3)CC2)cc1`: the inhibitory constant (Ki) worked out at 14.5 nM in series [4]; 152 nM in [5]; 1340 nM in series [6]; 419 nM in series [7]; 53 nM in [8]. Further, in series [9], the remaining at 0.5 h, 10 µM was determined as 19%. Further, the logKw in series [19] amounted to 0.39.
`O=C(CCOCCN1CCN(c2ncccc2-c2ccc(F)cc2)CC1)NCc1ccc(C(F)(F)F)cc1`: the Ki was found to be 32 nM in [4]; 1840 nM in series [5]; 1070 nM in series [6]; 393 nM in series [7]; 1370 nM in series [8]. The remaining at 0.5 h, 10 µM in series [9] is 2%. In addition, the logKw in series [19] came out at 0.42.
Turning to `O=C(CCOCCN1CCN(c2cccnc2-c2ccc(F)cc2)CC1)NCc1ccc(C(F)(F)F)cc1`, the Ki in [4] was 254 nM; in series [5], 6060 nM; in series [6], 2630 nM; in series [7], 3460 nM; in [8], 263 nM. Moreover, the remaining at 0.5 h, 10 µM in [9] stood at 6%. This molecule came in with a logKw in series [19] of 0.14.
For the molecule `N#Cc1ccc(CNC(=O)CCCCCN2CCN(c3ccccc3-c3ccccc3)CC2)cc1`, the remaining at 0.5 h, 10 µM in series [9] stood at 20%. The Ki in series [20] was 1570 nM; in series [21], 242 nM. In series [19], the logKw turned out to be 0.58.
As to `O=C(CCCCCN1CCN(c2ccccc2-c2ccccc2)CC1)NCc1ccc(OCCN2CCOCC2)cc1`, the Ki in [4] was found to be 16 nM; in series [5], 160 nM; in [6] it was 1720 nM; in [7], 136 nM; in [8] it was 7.4 nM. In series [9], the remaining at 0.5 h, 10 µM was 5%. The molecule also had a logKw in [19] of 0.59.
